The source of these data is publication PMC9467586, “Development of novel 9-O-substituted-13-octylberberine derivatives as potential anti-hepatocellular carcinoma agents” (Journal of Enzyme Inhibition and Medicinal Chemistry, 2022).

Series [1] concerns H22 liver cancer xenograft. Nature of the series: In vivo anti-HCC assay, H22 liver cancer xenograft mouse model. On the set-up: species or system mice. The conditions noted are these: 20 mg/kg, intravenous, once a day for 21 days, H22 mice. As for the experimental part: Five-week-old male Institute of Cancer Research (ICR) mice were purchased from Shanghai SLAC Laboratory Animals Co. Ltd. Briefly, a total of 1 × 10^6 H22 cells were subcutaneously inoculated into the right flank of ICR mice according to protocols of tumour transplant research, to initiate tumour growth. After incubation for one day, mice were weighed and randomly divided into 5 groups of 8 animals. The groups were administered berberine (30 mg/kg) and 6k (15 or 30 mg/kg) in a vehicle of 10% DMF/2% Tween 80/88% saline, respectively. Vehicle and cyclophosphamide (20 mg/kg) were employed as negative and positive controls, respectively. Treatments were performed by intravenous injection once per day for a total of 21 consecutive days. Body weights and tumour volumes were measured every 2 days. The mice were sacrificed after the treatments, and the tumours were excised and weighed. The tumour volume and inhibition rate (w/w) were calculated as follows: tumour volume = L × W^2/2, where L is the length and W is the width; tumour inhibitory ratio (%) = (1-average tumour weight of treated group/average tumour weight of control group) × 100%. All procedures were performed following institutional approval in accordance with the NIH Guide for the Care and Use of Laboratory Animals.

Series [2] has as its system HepG2 cells. Nature of the series: In vitro antiproliferative MTT assay, HepG2 cells. It counts as cell-based, human. The settings on record: 72 h, mean ± SD (n = 3), read-out: IC50 (antiproliferative activity against HepG2 cells). The protocol: (§1) HepG2, Sk-Hep-1, Huh-7, Hep3B and L-02 cells were purchased from Nanjing Key Gen Biotech Co. Ltd. (Nanjing, China). The cytotoxicity of test compounds was determined using an MTT assay. Briefly, the cell lines were incubated at 37 °C in a humidified 5% CO2 incubator for 24 h in 96-microwell plates. After medium removal, 100 μL of culture medium with 0.1% DMSO containing test compounds at different concentrations was added to each well and incubated at 37 °C for another 72 h. The MTT (5 mg/mL in PBS) was added and incubated for another 4 h, the optical density was detected with a microplate reader at 490 nm. The IC50 values were calculated according to the dose-dependent curves. All the experiments were repeated in at least three independent experiments.

The subject of series [3] is Hep3B cells. Nature of the series: In vitro antiproliferative MTT assay, Hep3B cells. It counts as cell-based, human. The conditions noted are these: 72 h, mean ± SD (n = 3). As for the experimental part:
as §1
In general terms: Tetrazolium dyes change colour on reduction, which living cells bring about.

Series [4] concerns normal hepatocytes L-02. As to the kind of experiment: MTT cytotoxicity assay, normal hepatocytes L-02. It counts as cell-based. The settings on record: normal hepatocytes L-02, MTT, 72 h, mean ± SD (n = 3). The protocol:
as §1

Series [5] has as its system Sk-Hep-1 cells. Nature of the series: In vitro antiproliferative MTT assay, Sk-Hep-1 cells. The settings on record: 72 h, mean ± SD (n = 3). It counts as cell-based, human. The protocol:
as §1

Series [6] has as its system Huh-7 cells. Nature of the series: In vitro antiproliferative MTT assay, Huh-7 cells. Format: cell-based, human. The conditions noted are these: 72 h, mean ± SD (n = 3). The protocol:
as §1

One may read the IC50 as the concentration needed to halve the response being measured. By melting point is commonly meant the temperature, or range, at which the solid turns liquid.

Where two headings read alike, the source gives them in different places.

For the compound `O=P1(N(CCCl)CCCl)NCCCO1` (stereo not drawn) [CP, cyclophosphamide, reference compound], the “tumour inhibitory rate (TIR, w/w)” value in series [1] worked out at 64.2%. Take `N.N.[Cl][Pt][Cl]` [Cisplatin]: the half-maximal inhibitory concentration (IC50) in series [2] was determined as 6.87 ± 0.31 µM; in series [3], 11.2 ± 0.51 µM; in series [4], 6.79 ± 0.46 µM; in series [5], 6.52 ± 0.42 µM; in series [6] it was 3.03 ± 0.63 µM.

Consider `COc1ccc2c(Cc3ccccc3)c3[n+](cc2c1OC)CCc1cc2c(cc1-3)OCO2` [Compound 3a, 13-Benzyl-9,10-dimethoxy-5,6-dihydro-[1,3]dioxolo[4,5-g]isoquinolino[3,2-a]isoquinolin-7-ium bromide], for which the IC50 in series [2] (Homo sapiens) is more than 50 µM. For the compound `CCCCCCc1c2[n+](cc3c(OC)c(OC)ccc13)CCc1cc3c(cc1-2)OCO3` [Compound 3b, 13-Hexyl-9,10-dimethoxy-5,6-dihydro-[1,3]dioxolo[4,5-g]isoquinolino[3,2-a]isoquinolin-7-ium chloride], the IC50 in series [2] (Homo sapiens) was determined as 6.14 ± 0.57 µM. Still for that read-out and setting: under `CCCCCCCCCCc1c2[n+](cc3c(OC)c(OC)ccc13)CCc1cc3c(cc1-2)OCO3` [Compound 3d, 13-Decyl-9,10-dimethoxy-5,6-dihydro-[1,3]dioxolo[4,5-g]isoquinolino[3,2-a]isoquinolin-7-ium chloride] stands 4.45 ± 0.34 µM.

On to `CCCCCCCCCCCCc1c2[n+](cc3c(OC)c(OC)ccc13)CCc1cc3c(cc1-2)OCO3` [Compound 3e, 13-Dodecyl-9,10-dimethoxy-5,6-dihydro-[1,3]dioxolo[4,5-g]isoquinolino[3,2-a]isoquinolin-7-ium chloride], for which, in series [2] (Homo sapiens), the IC50 stood at 4.24 ± 0.44 µM. `CCCCCCCCc1c2[n+](cc3c(OCCCN(CC)CC)c(OC)ccc13)CCc1cc3c(cc1-2)OCO3.[Br-]` [Compound 6a, 9–(3-(Diethylamino)propoxy)-10-methoxy-13-octyl-5,6-dihydro-[1,3]dioxolo[4,5-g]isoquinolino[3,2-a]isoquinolin-7-ium bromide] returned a melting point of 142 to 144 °C. For the same compound, the half-maximal inhibitory concentration (IC50) in series [2] (Homo sapiens) came out at 6.82 ± 0.51 µM. Turning to `CCCCCCCCc1c2[n+](cc3c(OCCCN4CCCC4)c(OC)ccc13)CCc1cc3c(cc1-2)OCO3.[Br-]` [Compound 6b, 10-Methoxy-13-octyl-9–(3-(pyrrolidin-1-yl)propoxy)-5,6-dihydro-[1,3]dioxolo[4,5-g]isoquinolino[3,2-a]isoquinolin-7-ium bromide], the melting point lay in the range of 135 to 137 °C. For the same compound, the 50% inhibitory concentration (IC50) in series [2] (Homo sapiens) amounted to 7.75 ± 0.83 µM.

`CCCCCCCCc1c2[n+](cc3c(OCCCN4CCOCC4)c(OC)ccc13)CCc1cc3c(cc1-2)OCO3.[Br-]` [Compound 6c, 10-Methoxy-9–(3-morpholinopropoxy)-13-octyl-5,6-dihydro-[1,3]dioxolo[4,5-g]isoquinolino[3,2-a]isoquinolin-7-ium bromide] gave a melting point of 167 to 169 °C. Further, in series [2] (Homo sapiens), the concentration for half-maximal inhibition (IC50) is 6.25 ± 0.56 µM. Taken in the same sequence, the figures for `CCCCCCCCc1c2[n+](cc3c(OCCCCCCN(CC)CC)c(OC)ccc13)CCc1cc3c(cc1-2)OCO3.[Br-]` [Compound 6d, 9-((6-(Diethylamino)hexyl)oxy)-10-methoxy-13-octyl-5,6-dihydro-[1,3]dioxolo[4,5-g]isoquinolino[3,2-a]isoquinolin-7-ium bromide] were 149 to 151 °C and 4.75 ± 0.24 µM.

The compound `CCCCCCCCc1c2[n+](cc3c(OCCCCCCN4CCCC4)c(OC)ccc13)CCc1cc3c(cc1-2)OCO3.[Br-]` [Compound 6e, 10-Methoxy-13-octyl-9-((6-(pyrrolidin-1-yl)hexyl)oxy)-5,6-dihydro-[1,3]dioxolo[4,5-g]isoquinolino[3,2-a]isoquinolin-7-ium bromide] yielded a melting point of 126 to 128 °C. For the same compound, in series [2] (Homo sapiens), the half-maximal inhibitory concentration (IC50) amounted to 3.91 ± 0.36 µM. On the same counts, the results for `CCCCCCCCc1c2[n+](cc3c(OCCCCCCN4CCOCC4)c(OC)ccc13)CCc1cc3c(cc1-2)OCO3.[Br-]` [Compound 6f, 10-Methoxy-9-((6-morpholinohexyl)oxy)-13-octyl-5,6-dihydro-[1,3]dioxolo[4,5-g]isoquinolino[3,2-a]isoquinolin-7-ium bromide] are 164 to 166 °C and 1.27 ± 0.25 µM. For the compound `CCCCCCCCc1c2[n+](cc3c(OCCCCCCN4CCCCC4)c(OC)ccc13)CCc1cc3c(cc1-2)OCO3.[Br-]` [Compound 6g, 10-Methoxy-13-octyl-9-((6-(piperidin-1-yl)hexyl)oxy)-5,6-dihydro-[1,3]dioxolo[4,5-g]isoquinolino[3,2-a]isoquinolin-7-ium bromide], the melting point fell in the range of 132 to 134 °C. Further, in series [2] (Homo sapiens), the IC50 was 1.64 ± 0.13 µM. In the case of `CCCCCCCCc1c2[n+](cc3c(OCCCCCCN4CCN(C)CC4)c(OC)ccc13)CCc1cc3c(cc1-2)OCO3.[Br-]` [Compound 6h, 10-Methoxy-9-((6–(4-methylpiperazin-1-yl)hexyl)oxy)-13-octyl-5,6-dihydro-[1,3]dioxolo[4,5-g]isoquinolino[3,2-a]isoquinolin-7-ium bromide], the melting point was in the range of 165 to 167 °C. Also, the IC50 in series [2] (Homo sapiens) was 1.47 ± 0.19 µM. In turn, `CCCCCCCCc1c2[n+](cc3c(OCCCCCCCCN4CCOCC4)c(OC)ccc13)CCc1cc3c(cc1-2)OCO3.[Br-]` [Compound 6i, 10-Methoxy-9-((8-morpholinooctyl)oxy)-13-octyl-5,6-dihydro-[1,3]dioxolo[4,5-g]isoquinolino[3,2-a]isoquinolin-7-ium bromide] showed a melting point of 147 to 149 °C. Also, the IC50 in series [2] (Homo sapiens) was 0.81 ± 0.08 µM.

With `CCCCCCCCc1c2[n+](cc3c(OCCCCCCCCN4CCCCC4)c(OC)ccc13)CCc1cc3c(cc1-2)OCO3.[Br-]` [Compound 6j, 10-Methoxy-13-octyl-9-((8-(piperidin-1-yl)octyl)oxy)-5,6-dihydro-[1,3]dioxolo[4,5-g]isoquinolino[3,2-a]isoquinolin-7-ium bromide], the melting point was 144 to 146 °C. Besides, in series [2] (Homo sapiens), the IC50 stood at 1 ± 0.1 µM.

`CCCCCCCCc1c2[n+](cc3c(OCCCCCCCCCCN4CCOCC4)c(OC)ccc13)CCc1cc3c(cc1-2)OCO3.[Br-]` [Compound 6l, 10-Methoxy-9-((10-morpholinodecyl)oxy)-13-octyl-5,6-dihydro-[1,3]dioxolo[4,5-g]isoquinolino[3,2-a]isoquinolin-7-ium bromide] came in with a melting point of 135 to 137 °C. In series [2] (Homo sapiens), the IC50 turned out to be 1.28 ± 0.11 µM. The compound `CCCCCCCCc1c2[n+](cc3c(OCCCCCCCCCCN4CCCCC4)c(OC)ccc13)CCc1cc3c(cc1-2)OCO3.[Br-]` [Compound 6m, 10-Methoxy-13-octyl-9-((10-(piperidin-1-yl)decyl)oxy)-5,6-dihydro-[1,3]dioxolo[4,5-g]isoquinolino[3,2-a]isoquinolin-7-ium bromide] came in with a melting point of 142 to 144 °C. The concentration for half-maximal inhibition (IC50) in series [2] (Homo sapiens) turned out to be 1.44 ± 0.13 µM. `CCCCCCCCc1c2[n+](cc3c(OCCCCCCCCCCN4CCN(C)CC4)c(OC)ccc13)CCc1cc3c(cc1-2)OCO3.[Br-]` [Compound 6n, 10-Methoxy-9-((10–(4-methylpiperazin-1-yl)decyl)oxy)-13-octyl-5,6-dihydro-[1,3]dioxolo[4,5-g]isoquinolino[3,2-a]isoquinolin-7-ium bromide] returned a melting point of 136 to 138 °C. Besides, in series [2] (Homo sapiens), the IC50 came to 1.08 ± 0.1 µM.
